Source: paper PMC12377202, “Design, synthesis, and cytotoxic evaluation of quinazoline-based derivatives as VEGER-2 inhibitors: comparative study against EGFR kinase activity, induction of apoptosis, and molecular docking study” (RSC Advances, 2025)

Tests used:
Format in all cases: cell-based, human
K-562 = test: MTT anti-proliferative assay, K-562; conditions: Homo sapiens, K562
HEK-293 = test: MTT cytotoxicity against normal cells
[1] = MTT cytotoxicity against normal cells; conditions: human, HEK-293 cells (normal human embryonic kidney)
HepG-2 = test: MTT anti-proliferative assay, HepG-2; conditions: Homo sapiens
MCF-7 = test: MTT anti-proliferative assay, MCF-7; conditions: Homo sapiens

Q: What does the source list for `CNC(=O)c1cc(Oc2ccc(NC(=O)Nc3ccc(Cl)c(C(F)(F)F)c3)cc2)ccn1` [Sorafenib, sorafenib, reference compound]?
A: viability at 78 µM (K-562; K-562, 0.078 umol/ml): 38.9%; cytotoxicity at 78 µM (K-562; K-562, 0.078 umol/ml, read-out: Toxicity %): 61.1%; viability at 0.313 µM (K-562; K-562, 0.313 umol/ml): 12.3%; viability at 0.625 µM (K-562; K-562, 0.625 umol/ml): 9.18%; cytotoxicity at 2500 µM (K-562; K-562, 2.5 umol/ml, read-out: Toxicity %): 92.1%; cytotoxicity at 10000 µM (K-562; K-562, 10 umol/ml, read-out: Toxicity %): 92.9%; IC50 (K-562; MTT, K-562, read-out: Cytotoxicity against cancer cells IC50 K-562): 0.0606 ± 0.0026 µM; Toxicity % (HEK-293; HEK-293, 0.078 umol/ml): 30.65%; Toxicity % (HEK-293; HEK-293, 0.156 umol/ml): 59.15%; Toxicity % (HEK-293; HEK-293, 0.313 umol/ml): 69.11%; Toxicity % (HEK-293; HEK-293, 0.625 umol/ml): 82.43%; Toxicity % (HEK-293; HEK-293, 1.25 umol/ml): 86.92%; Toxicity % (HEK-293; HEK-293, 2.5 umol/ml): 89.65%; Toxicity % (HEK-293; HEK-293, 10 umol/ml): 93.7%; Toxicity % (HEK-293; HEK-293, 50 umol/ml): 91.36%; IC50 (HEK-293; Homo sapiens, HEK293, raw data, HEK-293): 131 µM; viability at 3 days, 0.078 umol/ml ([1]; HEK-293, 0.078 umol/ml): 69.4%; viability at 3 days, 0.156 umol/ml ([1]; HEK-293, 0.156 umol/ml): 40.8%; viability at 3 days, 0.313 umol/ml ([1]; HEK-293, 0.313 umol/ml): 30.9%; viability at 3 days, 0.625 umol/ml ([1]; HEK-293, 0.625 umol/ml): 17.6%; viability at 3 days, 1.25 umol/ml ([1]; HEK-293, 1.25 umol/ml): 13.1%; viability at 3 days, 2.5 umol/ml ([1]; HEK-293, 2.5 umol/ml): 10.3%; viability at 3 days, 10 umol/ml ([1]; HEK-293, 10 umol/ml): 6.3%; viability at 3 days, 50 umol/ml ([1]; HEK-293, 50 umol/ml): 8.64%; viability at 78 µM (HepG-2; HepG2, 0.078 umol/ml): 51.7%; cytotoxicity at 0.078 µM (HepG-2; HepG2, 0.078 umol/ml, read-out: Toxicity %): 48.3%; viability at 0.313 µM (HepG-2; HepG2, 0.313 umol/ml): 16.5%; viability at 0.625 µM (HepG-2; HepG2, 0.625 umol/ml): 11.1%; cytotoxicity at 2500 µM (HepG-2; HepG2, 2.5 umol/ml, read-out: Toxicity %): 92.1%; cytotoxicity at 10000 µM (HepG-2; HepG2, 10 umol/ml, read-out: Toxicity %): 93.1%; IC50 (MCF-7; MCF7, MTT, MCF-7, read-out: Cytotoxicity against cancer cells IC50 MCF-7): 0.128 ± 0.0031 µM; viability at 78 µM (MCF-7; MCF7, 0.078 umol/ml): 71.5%; cytotoxicity at 78 µM (MCF-7; MCF7, 0.078 umol/ml, read-out: Toxicity %): 28.5%; viability (MCF-7; MCF7, 0.313 umol/ml): 25.7%; cytotoxicity at 0.313 µM (MCF-7; MCF7, 0.313 umol/ml, read-out: Toxicity %): 74.3%; viability (MCF-7; MCF7, 0.625 umol/ml): 16.1%; cytotoxicity at 2500 µM (MCF-7; MCF7, 2.5 umol/ml, read-out: Toxicity %): 89.1%; cytotoxicity at 10000 µM (MCF-7; MCF7, 10 umol/ml, read-out: Toxicity %): 91.8%
